What was measured:
Wnt/β-catenin pathway = assay: Wnt reporter assay (TCF-Luciferase, Firefly) in DBTRG-05MG cells; type: cell-based; details: Homo sapiens, TCF-Luciferase (Firefly) read out, 24 hours after compound addition, range given with mixed units nM and μM, read-out: IC50 value in the reporter assay
How it was run: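 DBTRG-05MG cells carrying a 3×(4×TCF)-driven Firefly luciferase reporter, with Renilla also read, were plated 36 h before an 8-point compound dilution series (0.6% DMSO). Lysis and Dual-Luciferase readout followed 24 h after compound addition. Firefly and Renilla were each expressed as % of control and fitted to a four-parameter sigmoid.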

DBTRG cells = assay: Soft agar anchorage independent assay; type: cell-based; details: 504 h; DBTRG colonies scored 3 weeks after plating; range over the listed examples, given with mixed units nM and μM
Protocol: DBTRG cells were seeded into a 24-well format in the presence of […] carrier alone or compound (0.6% DMSO (v/v)). Each well is composed of two agar layers: the bottom layer consists of 0.6% Agar while the top has 0.35% Agar plus cells and compound. Cells (2500 per well) were incubated with […] dilution compound the day of the plating and the colonies were scored 3 weeks later after o/n staining with MTT solution. Imaging and counting of the colonies was done with the GelCount™ instrument (Oxford Optronix, UK). For IC50 determination the data were expressed as % of control, values were calculated using XLFit version 4.2, with a four parameters sigmoid 5 function (XLFit model 205).

Cn1c(=O)n(C[C@H]2CC[C@H](C(=O)Nc3ccncc3)CC2)c2cc(C(F)(F)F)ccc21 [Example 22]
IC50 (Wnt/β-catenin pathway): 35 to 23000 nM | IC50 (DBTRG cells): 32 to 2900 nM

COc1ccc2c(c1)n(C[C@H]1CC[C@H](C(=O)Nc3ccncc3)CC1)c(=O)n2C [Example 29]
IC50 (Wnt/β-catenin pathway): 35 to 23000 nM | IC50 (DBTRG cells): 32 to 2900 nM

COc1ccc2c(c1)n(C[C@H]1CC[C@H](C(=O)N3C[C@@H](C)O[C@@H](C)C3)CC1)c(=O)n2C [Example 61]
IC50 (Wnt/β-catenin pathway): 35 to 23000 nM | IC50 (DBTRG cells): 32 to 2900 nM

CC(=O)N1CCN(C(=O)[C@H]2CC[C@H](Cn3c(=O)n(C)c4ccc(C5CC5)cc43)CC2)CC1 [Example 68]
IC50 (Wnt/β-catenin pathway): 35 to 23000 nM | IC50 (DBTRG cells): 32 to 2900 nM

COCCOc1ccc2c(c1)n(C[C@H]1CC[C@H](C(=O)N3CCN(C(C)=O)CC3)CC1)c(=O)n2C [Example 71]
IC50 (Wnt/β-catenin pathway): 35 to 23000 nM | IC50 (DBTRG cells): 32 to 2900 nM

COCCOc1ccc2c(c1)n(C[C@H]1CC[C@H](C(=O)Nc3ccncc3)CC1)c(=O)n2C [Example 72]
IC50 (Wnt/β-catenin pathway): 35 to 23000 nM | IC50 (DBTRG cells): 32 to 2900 nM

COc1ccc2c(c1)n(C[C@H]1CC[C@H](c3nnc(-c4cnn(C)c4)o3)CC1)c(=O)n2C [Example 106]
IC50 (Wnt/β-catenin pathway): 35 to 23000 nM | IC50 (DBTRG cells): 32 to 2900 nM

COCC#Cc1ccc2c(n1)n(C[C@H]1CC[C@H](C(=O)Nc3ccncc3)CC1)c(=O)n2C [Example 115]
IC50 (Wnt/β-catenin pathway): 35 to 23000 nM | IC50 (DBTRG cells): 32 to 2900 nM

COCCOc1ccc2c(c1)n(C[C@H]1CC[C@H](C(=O)Nc3ccnnc3)CC1)c(=O)n2C [Example 121]
IC50 (Wnt/β-catenin pathway): 35 to 23000 nM | IC50 (DBTRG cells): 32 to 2900 nM

COCCOc1ccc2c(c1)n(C[C@H]1CC[C@H](c3nnc(-c4cnn(C)c4)o3)CC1)c(=O)n2C [Example 147]
IC50 (Wnt/β-catenin pathway): 35 to 23000 nM | IC50 (DBTRG cells): 32 to 2900 nM

Cn1c(=O)n(C[C@H]2CC[C@H](C(=O)Nc3ccncc3)CC2)c2cc(OCCN3CCOCC3)ccc21 [Example 152]
IC50 (Wnt/β-catenin pathway): 35 to 23000 nM | IC50 (DBTRG cells): 32 to 2900 nM

COc1ccc2c(c1)n(C[C@H]1CC[C@H](c3cc(-c4cnn(C)c4)n[nH]3)CC1)c(=O)n2C [Example 153]
IC50 (Wnt/β-catenin pathway): 35 to 23000 nM | IC50 (DBTRG cells): 32 to 2900 nM

COc1cc2c(cc1F)n(C)c(=O)n2C[C@H]1CC[C@H](C(=O)N2CCN(C(C)=O)CC2)CC1 [Example 161]
IC50 (Wnt/β-catenin pathway): 35 to 23000 nM | IC50 (DBTRG cells): 32 to 2900 nM

COc1cc2c(cc1F)n(C)c(=O)n2C[C@H]1CC[C@H](c2nnc(-c3cnn(C)c3)o2)CC1 [Example 182]
IC50 (Wnt/β-catenin pathway): 35 to 23000 nM | IC50 (DBTRG cells): 32 to 2900 nM

COCCOc1cc2c(cc1F)n(C)c(=O)n2C[C@H]1CC[C@H](c2nnc(-c3cnn(C)c3)o2)CC1 [Example 185]
IC50 (Wnt/β-catenin pathway): 35 to 23000 nM | IC50 (DBTRG cells): 32 to 2900 nM

COCCOc1cc2c(cc1F)n(C)c(=O)n2C[C@H]1CC[C@H](C(=O)Nc2ccncc2)CC1 [Example 186]
IC50 (Wnt/β-catenin pathway): 35 to 23000 nM | IC50 (DBTRG cells): 32 to 2900 nM
